According to ChEMBL document CHEMBL2396653, “Synthesis and antimycobacterial evaluation of N-substituted 5-chloropyrazine-2-carboxamides” (Bioorg Med Chem Lett, 2013):
Values after ≈ are worked out from the molar mass of the structure shown.

Key:
[1] = test system: Mycobacterium tuberculosis variant bovis; assay: Antimycobacterial activity against pyrazinamide-resistant Mycobacterium bovis ATCC 35720 assessed as growth inhibition after 24 hrs to 2 weeks by microbroth dilution method; format: functional
[2] = test system: Mycobacterium tuberculosis variant bovis; assay: Antimycobacterial activity against pyrazinamide-resistant Mycobacterium bovis ATCC 27289 assessed as growth inhibition after 24 hrs to 2 weeks by microbroth dilution method; format: functional

`NC(=O)c1cnc(Cl)cn1` showed an MIC [1] of 8 µg/mL (≈ 50.8 µM) and an MIC [2] of 8 µg/mL (≈ 50.8 µM).
